Laboratory results taken from EP1734039A1, “Aryl urea compounds as BETA-secretase inhibitors” (Esbatech AG, priority 2005, dated 2006).
Blank lines part the entries; values can stand above or below the compound they belong to.

Key:
[1] = tested on: Aβ1-40 secretion; experiment: Aβ1-40 (Sw) bioassay (cell-based, ELISA); details: for IC50: Homo sapiens, concentration that reduces Aβ1-40 secretion to 50 %, supernatant of Swedish APP695 transgenic HEK293 cells
From the text: (§1) The tests performed were a) Aβ1-40 (Sw) bioassay, which measures the amount of the amyoid peptide Aβ1-40 in the supernatant of Swedish APP695 transgenic HEK293 cells in the presence of the various BACE inhibitors via ELISA (enzyme-linked immunosorbent assay). […] A SEAP-APP(Sw)695 fusion protein is transiently expressed in HEK293 cells in the presence of the various BACE inhibitors. Secretion of the SEAP moiety upon cleavage at the APP β-site is quantitated via a luminescence readout. […] The compounds were docked with the FFLD approach (Budin et al., Biol. Chem. 382, 1365-1372, 2001) and their binding energy was evaluated with the LIECE method (Huang and Caflisch, J. Med. Chem. 47, 5791-5797, 2004). The affinity evaluated with LIECE is in the low micromolar range for most of these compounds.

[2] = tested on: SEAP-APP(Sw)695 fusion protein; experiment: SEAP bioassay (cell-based, luminescence readout); details: transiently transfected HEK293 cells; for IC50: Homo sapiens, concentration that reduces secreted SEAP activity to 50 %
From the text: as §1

[3] = target: recombinant BACE enzyme (Homo sapiens, UniProt P56817); experiment: FRET assay (in vitro); format: biochemical; details: for IC50: concentration that reduces the activity of BACE to 50 %
Chain of recombinant BACE enzyme (P56817 46-501): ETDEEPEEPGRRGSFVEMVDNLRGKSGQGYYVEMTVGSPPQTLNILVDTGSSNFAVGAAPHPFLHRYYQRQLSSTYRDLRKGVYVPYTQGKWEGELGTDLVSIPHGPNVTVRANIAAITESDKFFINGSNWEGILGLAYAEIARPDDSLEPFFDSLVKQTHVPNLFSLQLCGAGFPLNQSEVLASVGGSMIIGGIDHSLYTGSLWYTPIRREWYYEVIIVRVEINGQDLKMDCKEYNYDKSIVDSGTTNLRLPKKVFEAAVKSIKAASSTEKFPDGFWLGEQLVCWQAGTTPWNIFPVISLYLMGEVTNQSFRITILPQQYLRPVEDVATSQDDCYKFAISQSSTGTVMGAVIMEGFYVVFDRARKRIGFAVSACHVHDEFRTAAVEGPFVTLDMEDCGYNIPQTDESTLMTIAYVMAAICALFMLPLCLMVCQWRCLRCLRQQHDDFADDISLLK

- IC50 [1]: 13 µM
- % reduction of the activity of BACE ([3]; at 500 µM): 0 (500 µM) %
SMILES: COc1cccc(NC(=O)Nc2nnc(C(C)Oc3ccccc3)s2)c1 (stereo not drawn) [Compound B4]
- % reduction of secreted SEAP activity ([2]; at 12.5 µM): 0 (12.5 µM) %

- % reduction of the activity of BACE ([3]; at 500 µM): 0 (500 µM) %
SMILES: CN(C)c1nc(OCCNC(=O)Nc2ccccc2)nc(N2CCCCC2)n1 [Compound C4]
- % reduction of Aβ1-40 secretion ([1]; at 12.5 µM, Swedish APP695 transgenic HEK293 cells): 31 (12.5 µM) %
- % reduction of secreted SEAP activity ([2]; at 12.5 µM): 0 (12.5 µM) %

- IC50 [1]: 18 µM
- % reduction of the activity of BACE ([3]; at 500 µM): 0 (500 µM) %
SMILES: Cc1cc(C)cc(NC(=O)NCc2nnc(SCc3ccccc3)n2C)c1 [Compound B1]
- % reduction of secreted SEAP activity ([2]; at 50 µM): 0 (50 µM) %

- IC50 [1]: 10 to 20 µM
- % reduction of the activity of BACE ([3]; at 500 µM): 0 (500 µM) %
SMILES: CCNc1nc(NC(C)(C)C)nc(OCCNC(=O)Nc2ccccc2)n1 [Compound C5]
- % reduction of secreted SEAP activity ([2]; at 25 µM): 0 (25 µM) %

- IC50 [1]: 1.6 µM
- IC50 [2]: 10 µM
SMILES: CCSc1nsc(NC(=O)Nc2cccc(C(C)=O)c2)n1 [Compound B3]

- IC50 [1]: 40 µM
- % reduction of the activity of BACE ([3]; at 250 µM): 0 (250 µM) %
SMILES: CSc1nnc(CCNC(=O)Nc2ccc(Cl)c(C(F)(F)F)c2)n1C(C)C [Compound B2]
- % reduction of secreted SEAP activity ([2]; at 12.5 µM): 0 (12.5 µM) %

- IC50 [1]: 22 µM
- % reduction of the activity of BACE ([3]; at 50 µM): 0 (50 µM) %
SMILES: Cc1cccc(NC(=O)NCC2CCN(c3ccc(S(=O)(=O)N4CCOCC4)cc3)CC2)c1 [Compound C3]
- % reduction of secreted SEAP activity ([2]; at 12.5 µM): 0 (12.5 µM) %

More lines, now with the values behind:

SMILES: Cc1cccc(NC(=O)Nc2ccc(N(C)C)c(C(=O)NCCc3ccccc3)c2)c1 [Compound A8]
- IC50 [1]: 5.6 µM
- % reduction of secreted SEAP activity ([2]; at 3 µM): 14 (3 µM) %
- % reduction of the activity of BACE ([3]; at 100 µM): 35 (100 µM) %

SMILES: CCCNC(=O)c1cc(NC(=O)Nc2ccc(CC)cc2)ccc1N(C)C [Compound A11]
- IC50 [1]: 5.2 µM
- % reduction of secreted SEAP activity ([2]; at 6 µM): 0 (6 µM) %
- % reduction of the activity of BACE ([3]; at 200 µM): 20 (200 µM) %

SMILES: CCCNC(=O)c1cc(NC(=O)Nc2cccc(OC)c2)ccc1N(C)C [Compound A5]
- IC50 [1]: 14.3 µM
- % reduction of secreted SEAP activity ([2]; at 6 µM): 0 (6 µM) %
- % reduction of the activity of BACE ([3]; at 100 µM): 16 (100 µM) %

SMILES: COCCCNC(=O)c1cc(NC(=O)Nc2ccc(Cl)c(Cl)c2)ccc1N(C)C [Compound A9]
- IC50 [1]: 5.9 µM
- % reduction of secreted SEAP activity ([2]; at 3 µM): 17 (3 µM) %
- IC50 [3]: 46 µM

SMILES: COCCCNC(=O)c1cc(NC(=O)Nc2cccc(OC)c2)ccc1N(C)C [Compound A4]
- IC50 [1]: 7.5 µM
- % reduction of secreted SEAP activity ([2]; at 6 µM): 21 (6 µM) %
- % reduction of the activity of BACE ([3]; at 100 µM): 33 (100 µM) %

SMILES: Cc1ccc(NC(=O)Nc2ccc(N(C)C)c(C(=O)NCCCN3CCOCC3)c2)cc1C [Compound A6]
- IC50 [1]: 23 µM
- % reduction of secreted SEAP activity ([2]; at 12.5 µM): 19 (12.5 µM) %
- % reduction of the activity of BACE ([3]; at 100 µM): 21 (100 µM) %

SMILES: COc1cc(NC(=O)Nc2ccc(N(C)C)c(C(=O)NCc3ccc(F)cc3)c2)cc(OC)c1 [Compound A10]
- IC50 [1]: 3.1 µM
- % reduction of secreted SEAP activity ([2]; at 1.6 µM): 10 (1.6 µM) %
- IC50 [3]: 64 µM

SMILES: CCOCCCNC(=O)c1cc(NC(=O)Nc2ccccc2Br)ccc1N(C)C [Compound A14]
- IC50 [1]: 7.8 µM
- % reduction of secreted SEAP activity ([2]; at 6 µM): 0 (6 µM) %
- % reduction of the activity of BACE ([3]; at 100 µM): 0 (100 µM) %

SMILES: COCCCNC(=O)c1cc(NC(=O)Nc2cccc(Br)c2)ccc1N(C)C [Compound A13]
- IC50 [1]: 3.8 µM
- % reduction of secreted SEAP activity ([2]; at 3 µM): 25 (3 µM) %
- % reduction of the activity of BACE ([3]; at 100 µM): 37 (100 µM) %

SMILES: COCCNC(=O)c1cc(NC(=O)Nc2cccc(C)c2)ccc1N(C)C [Compound A7]
- IC50 [1]: 12.9 µM
- % reduction of secreted SEAP activity ([2]; at 12.5 µM): 0 (12.5 µM) %
- % reduction of the activity of BACE ([3]; at 100 µM): 0 (100 µM) %

SMILES: CN(C)c1ccc(NC(=O)Nc2cc(C(F)(F)F)cc(C(F)(F)F)c2)cc1C(=O)NCc1ccc(F)cc1 [Compound A12]
- IC50 [1]: 4.2 µM
- % reduction of secreted SEAP activity ([2]; at 1.6 µM): 14 (1.6 µM) %
- IC50 [3]: 131 µM

SMILES: COCCCNC(=O)c1cc(NC(=O)Nc2cc(C(F)(F)F)cc(C(F)(F)F)c2)ccc1N(C)C [Compound A2]
- IC50 [1]: 3.2 µM
- % reduction of secreted SEAP activity ([2]; at 3 µM): 27 (3 µM) %
- IC50 [3]: 284 µM

SMILES: CCOCCCNC(=O)c1cc(NC(=O)Nc2cccc(Cl)c2)ccc1N(C)C [Compound A3]
- IC50 [1]: 2.6 µM
- % reduction of secreted SEAP activity ([2]; at 3 µM): 23 (3 µM) %

SMILES: CN(C)c1ccc(NC(=O)Nc2cc(C(F)(F)F)cc(C(F)(F)F)c2)cc1C(=O)NCCCN1CCOCC1 [Compound A1]
- IC50 [1]: 3 µM
- IC50 [2]: 3.5 µM
